From patent US20110166078A1, “OLIGOSACCHARIDE COMPOUNDS FOR USE IN MOBILISING STEM CELLS” (ENDOTIS PHARMA, priority 2008, published 2011) come the findings set out here.

The target in one experiment is FGF-2 (Homo sapiens, UniProt P09038). Put plainly: FGF-2/heparin competition assay by SPR (Biacore). Type of experiment: binding. The following applies: 10 nM FGF-2, biotinylated heparin, Sensorchip C1. The procedure: (§1) Heparin or low molecular weight heparin (6 kDa) from SIGMA were biotinylated at the reducing end and immobilized on a Biacore sensorchip. Different concentrations of the compounds of the present invention were co-incubated at a fixed concentration of targets: FGF-2, PDGF-β, VEGF-A or SDF-1α for 30 minutes. The mixture was then injected onto the streptavidin control (control reference) and HP surfaces. Only free growth factor (GF) or chemokine, i.e. the target molecules not bound to compounds of the present invention, were trapped on the heparin surface. From the binding of free targets on heparin, the percentages of inhibition were calculated and then reported in function of compound concentrations. The plot was fitted with a four-parameter model and IC50 was calculated. The 0% inhibition value was obtained for the injection of the studied target in running-buffer, and the 100% inhibition value was obtained for the injection of the studied target co-incubated with 10 μM of low molecular weight heparin 6 kDa.
A FGF-2/heparin competition assay using the Biacore technology was performed in the following conditions: 10 nM FGF-2, biotinylated heparin, Reference Streptavidin, Sensorchip C1, PBS-T 0.02%, Regeneration NaCl 2M
(§2) IC50 values of compounds of the present invention were determined using the Biacore technology for the growth factor and chemokine/heparin competition assays that contained the following proteins: VEGF-A, SDF-1α, FGF-2 and PDGF-β.
For orientation: Surface plasmon resonance follows binding to a sensor surface in real time, without labels.

A further experiment has as its target PDGF-β (Homo sapiens, UniProt P01127). The experiment is described as follows: PDGF-β/heparin competition assay by SPR (Biacore). The format is binding. The conditions noted are these: 10 nM PDGF-β, biotinylated heparin, Sensorchip C1. On the procedure: as §1, with “kDa. A PDGF-β/heparin competition assay using the Biacore technology was performed using the following conditions: 10 nM PDGF-β, biotinylated heparin, Reference Streptavidin, Sensorchip C1, HBS-P, Regeneration NaCl 2M. IC50 values of compounds of the present invention were determined using the Biacore technology for the growth factor and chemokine/heparin competition assays that contained the following proteins: VEGF-A, SDF-1α, FGF-2 and PDGF-β.” for “kDa.”

Experiment [1] deals with control and VEGF-A-stimulated angiogenesis (endothelial tubules, HUVEC/NHDF co-culture). Put plainly: In vitro angiogenesis assay (endothelial tubule formation, AngioKit). The format is cell-based, human. The following applies: 30 μM compound; anti-CD31 ELISA and AngioSys image analysis; FIGS. 13-15. The text has this:
These experiments are also known as endothelial tubule formation assays and they are used to evaluate the compound effects on in vitro angiogenesis (the neo-formation of blood vessels from pre-existing ones). This process is critical in tumour development as bloodstream brings all the necessary nutrients and oxygen to cancer cells.
The assay uses a commercially available product (AngioKit) specially designed for screening experiments. The product consists of a 24 or 96-well culture plate containing endothelial and fibroblast cells. A similar assay has been developed “in-house” using 48-well culture plates.
Endothelial cells will, on a ten-day period, develop into a branched network of endothelial tubules or “primitive” blood vessels. This process requires a co-culture with fibroblasts, these latter cells secreting essential growth factors for endothelial cells. At the end of the incubation period (about ten days), angiogenesis is monitored both by ELISA and image analysis software quantifying different blood vessel parameters (number and average length of tubules, field area, number of junctions for example). All reagents and material (except the oligosaccharide compounds, the VEGF-A and the 48-well plate AngioKits) are bought from TCS CellWorks (http://www.tcscellworks.co.uk) which provides: • 24 and 96-well plate AngioKits (including culture medium) • Anti-CD31 (a cell marker specifically expressed on endothelial cells) reagents for ELISA and tubule staining procedures. • AngioSys image analysis software
For home-made 48-well plate AngioKits, NHDF and HUVEC cells were independently purchased while TCS CellWorks culture medium and protocol were used.
The cell medium is replaced with fresh one (day 1) and cells are incubated at 37° C. with the compounds of interest (oligosaccharides and/or angiogenic proteins, such as growth factors). During the course of the experiment, the culture medium (including oligosaccharides and/or angiogenic proteins) is replaced at days 4 and 7.
At day 10, the assay is terminated by the labelling of endothelial cells by an ELISA procedure (indirect colorimetric titration of the endothelial cell number through dosage of the endothelial-specific CD31 marker) and the staining of endothelial tubules. Photographs of stained tubules are taken and analysed with the AngioSys image analysis software.
In the following assay the effects of compounds 239, 240, 246, 247, 248, 249, 252, 254, 255 and 257 on in vitro angiogenesis were measured (all compounds were added at the 30 μM concentration). […] For the data presented in FIG. 13, AngioSys image analyses are shown on FIG. 14. Photographs of endothelial tubules are shown on the side of the anti-CD31 ELISA (see FIGS. 13 and 15).
On the technique in general: ELISA stands for enzyme-linked immunosorbent assay.

The target of the next experiment is SDF-1α (Homo sapiens, UniProt P48061). The experiment is described as follows: SDF-1α/heparin competition assay by SPR (Biacore). The format is binding. The following applies: 96 nM SDF-1α, biotinylated low molecular weight heparin (6 kDa), Sensorchip SA. The procedure: as §1
A SDF-1α/heparin competition assay using the Biacore technology was performed using the following conditions: 96 nM SDF-1α, biotinylated low molecular weight heparin (6 kDa), Reference Streptavidin, Sensorchip SA, HBS-P, Regeneration NaCl 2M
as §2

Another experiment addresses T1, VEGF-A (Homo sapiens, UniProt P15692).
T1 sequence (P15692 27-191 isoform P15692-4): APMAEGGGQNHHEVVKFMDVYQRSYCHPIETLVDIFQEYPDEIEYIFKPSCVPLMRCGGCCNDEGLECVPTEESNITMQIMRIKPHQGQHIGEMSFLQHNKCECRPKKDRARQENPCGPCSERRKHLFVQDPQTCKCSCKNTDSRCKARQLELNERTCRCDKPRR
The experiment is described as follows: VEGF-A/heparin competition assay by SPR (Biacore). Type of experiment: binding. The following applies: 10 nM VEGF-A, biotinylated low molecular weight heparin, Sensorchip SA. On the procedure: as §1
A VEGF-A/heparin competition assay using the Biacore technology was performed using the following conditions: 10 nM VEGF-A, biotinylated low molecular weight heparin, Reference Streptavidin, Sensorchip SA, HBS-P, Regeneration NaCl 2M.
as §2

SMILES strings stand for the structures. Where only a bound is given, the exact number is not on record here.

Consider `C#CCCCOC1OC(COS(=O)(=O)[O-])C(OC2OC(C(=O)[O-])C(OC3OC(COS(=O)(=O)[O-])C(OC4OC(C(=O)[O-])C(OC5OC(COS(=O)(=O)[O-])C(OC6OC(C(=O)[O-])C(OCc7ccccc7)C(OCc7ccccc7)C6OS(=O)(=O)[O-])C(OCc6ccccc6)C5NS(=O)(=O)[O-])C(OCc5ccccc5)C4OS(=O)(=O)[O-])C(OCc4ccccc4)C3NS(=O)(=O)[O-])C(OCc3ccccc3)C2OS(=O)(=O)[O-])C(OC)C1NS(=O)(=O)[O-].[Na+].[Na+].[Na+].[Na+].[Na+].[Na+].[Na+].[Na+].[Na+].[Na+].[Na+].[Na+]` (stereo not shown) [Compound 249], for which the 50% inhibitory concentration (IC50) was 136 nM on FGF-2 and 225 nM at PDGF-β. For the same molecule, in experiment [1], the “inhibition of control and/or VEGF-A-stimulated angiogenesis” value (from here on “inhibition”) is “inhibition of control and/or VEGF-A-stimulated angiogenesis”.
In the same order, the values of `C#CCCCOC1OC(COS(=O)(=O)[O-])C(OC2OC(C(=O)[O-])C(OC3OC(COS(=O)(=O)[O-])C(OC4OC(C(=O)[O-])C(OC5OC(COS(=O)(=O)[O-])C(OC6OC(C(=O)[O-])C(OCc7ccccc7)C(OCc7ccccc7)C6OS(=O)(=O)[O-])C(OCc6ccccc6)C5NS(=O)(=O)[O-])C(OC)C4OS(=O)(=O)[O-])C(OC)C3NS(=O)(=O)[O-])C(OCc3ccccc3)C2OS(=O)(=O)[O-])C(OCc2ccccc2)C1NS(=O)(=O)[O-].[Na+].[Na+].[Na+].[Na+].[Na+].[Na+].[Na+].[Na+].[Na+].[Na+].[Na+].[Na+]` (stereo not shown) [Compound 252] are 121 nM, 171 nM and “inhibition of control and/or VEGF-A-stimulated angiogenesis”.
As for `C#CCCCOC1OC(COS(=O)(=O)[O-])C(OC2OC(C(=O)[O-])C(OC3OC(COS(=O)(=O)[O-])C(OC4OC(C(=O)[O-])C(OC5OC(COS(=O)(=O)[O-])C(OC6OC(C(=O)[O-])C(OC)C(OC)C6OS(=O)(=O)[O-])C(OC)C5NS(=O)(=O)[O-])C(OC)C4OS(=O)(=O)[O-])C(OC)C3NS(=O)(=O)[O-])C(OC)C2OS(=O)(=O)[O-])C(OC)C1NS(=O)(=O)[O-].[Na+].[Na+].[Na+].[Na+].[Na+].[Na+].[Na+].[Na+].[Na+].[Na+].[Na+].[Na+]` (stereo not shown) [Compound 248], the IC50 at SDF-1α is 22600 nM; at FGF-2 it was 1660 nM; at PDGF-β, 28000 nM; at VEGF-A, 1670 nM. Also, in experiment [1], the “inhibition” value is reported as “inhibition of control and/or VEGF-A-stimulated angiogenesis”.
For `C#CCCCOC1OC(COS(=O)(=O)[O-])C(OC2OC(C(=O)[O-])C(OC3OC(COS(=O)(=O)[O-])C(OC4OC(C(=O)[O-])C(OC5OC(COS(=O)(=O)[O-])C(OC6OC(C(=O)[O-])C(OCc7ccccc7)C(OCc7ccccc7)C6OS(=O)(=O)[O-])C(OC)C5NS(=O)(=O)[O-])C(OCc5ccccc5)C4OS(=O)(=O)[O-])C(OC)C3NS(=O)(=O)[O-])C(OCc3ccccc3)C2OS(=O)(=O)[O-])C(OC)C1NS(=O)(=O)[O-].[Na+].[Na+].[Na+].[Na+].[Na+].[Na+].[Na+].[Na+].[Na+].[Na+].[Na+].[Na+]` (stereo not shown) [Compound 246] the same measures were 865 nM, 167 nM, 194 nM, 59 nM and “inhibition of control and/or VEGF-A-stimulated angiogenesis”.
As for `C#CCCCOC1OC(COS(=O)(=O)[O-])C(OC2OC(C(=O)[O-])C(OC3OC(COS(=O)(=O)[O-])C(OC4OC(C(=O)[O-])C(OC5OC(COS(=O)(=O)[O-])C(OC6OC(C(=O)[O-])C(OC)C(OC)C6OS(=O)(=O)[O-])C(OCc6ccccc6)C5NS(=O)(=O)[O-])C(OC)C4OS(=O)(=O)[O-])C(OCc4ccccc4)C3NS(=O)(=O)[O-])C(OC)C2OS(=O)(=O)[O-])C(OCc2ccccc2)C1NS(=O)(=O)[O-].[Na+].[Na+].[Na+].[Na+].[Na+].[Na+].[Na+].[Na+].[Na+].[Na+].[Na+].[Na+]` (stereo not shown) [Compound 247], the IC50 was 430 nM at SDF-1α, over 100000 nM on FGF-2, 1690 nM at PDGF-β and 45 nM on VEGF-A. Further, the “inhibition” value in experiment [1] is “inhibition of control and/or VEGF-A-stimulated angiogenesis”.
As to `C#CCCCOC1OC(COS(=O)(=O)O)C(OC2OC(C(=O)O)C(OC3OC(COS(=O)(=O)O)C(OC4OC(C(=O)O)C(OCc5ccccc5)C(OCc5ccccc5)C4OS(=O)(=O)O)C(OCc4ccccc4)C3NS(=O)(=O)O)C(OCc3ccccc3)C2OS(=O)(=O)O)C(OCc2ccccc2)C1NS(=O)(=O)O` (stereo not shown) [Compound 236], the 50% inhibitory concentration (IC50) on SDF-1α was 3600 nM; on FGF-2 it was 187 nM; at PDGF-β it was 1350 nM; at VEGF-A it was 310 nM.
Regarding `C#CCCCOC1OC(COS(=O)(=O)[O-])C(OC2OC(C(=O)[O-])C(OC3OC(COS(=O)(=O)[O-])C(OC4OC(C(=O)[O-])C(OC5OC(COS(=O)(=O)[O-])C(OC6OC(C(=O)[O-])C(OCc7ccccc7)C(OCc7ccccc7)C6OS(=O)(=O)[O-])C(OCc6ccccc6)C5NS(=O)(=O)[O-])C(OCc5ccccc5)C4OS(=O)(=O)[O-])C(OC)C3NS(=O)(=O)[O-])C(OC)C2OS(=O)(=O)[O-])C(OC)C1NS(=O)(=O)[O-].[Na+].[Na+].[Na+].[Na+].[Na+].[Na+].[Na+].[Na+].[Na+].[Na+].[Na+].[Na+]` (stereo not shown) [Compound 255], the 50% inhibitory concentration (IC50) on FGF-2 turned out to be 36 nM; on PDGF-β, 122 nM. The “inhibition” value in experiment [1] is on record as “inhibition of control and/or VEGF-A-stimulated angiogenesis”.

As usually defined, the IC50 is the midpoint of a concentration-inhibition curve.
